The numbers were not newly measured in US20090263481A1, “LEVETIRACETAM FORMULATIONS” (priority 2008, published 2009), which cites them from elsewhere.

Experiment in series [1]: not given
This is another data set of the same source.

Read-outs that look alike come from different tables or passages of the source.

`CC[C@@H](C(N)=O)N1CCCC1=O` [Levetiracetam, (−)-(S)-α-ethyl-2-oxo-1-pyrrolidine acetamide]: the “solubility (descriptive)” value (acetonitrile) is “sparingly soluble”; the “solubility (descriptive)” value (chloroform) is “freely soluble”; the “solubility (descriptive)” value (ethanol) is “soluble”; the “solubility (descriptive)” value (methanol) is reported as “freely soluble”; the “solubility (descriptive)” value (n-hexane) was “practically insoluble”; the “solubility (descriptive)” value (water) is recorded as “very soluble”. Also, for the setting “water”, the aqueous solubility is listed as 104 g/100 mL. In addition, the “dose range over which pharmacokinetics are linear” value in series [1] (in vivo) was 500 to 5000 mg. Besides, the “absorption after oral administration (descriptive)” value in series [1] (oral administration) was “rapidly and almost completely absorbed”. In addition, the “time of peak plasma concentrations” value in series [1] (oral administration to fasted subjects) is listed as “one”. Also, the “decrease of Cmax by food” value in series [1] (oral, with food) was 20%. Also, the “time to steady state” value in series [1] (twice-daily dosing) is on record as 2 days. The “bound to plasma proteins” value with plasma proteins was “less than 10%”.
